Values joined by “and” are separate entries in the source; they are usually repeats but may differ in a detail not shown here. Equal values may be shown once.

The values that follow come from patent US4153684A, “Immunizing and anti-infectious adjuvant agents constituted by N-acetyl-muramyl-L-alanyl-D-glutamic acid derivatives” (priority 1976, dated 1979).

Data set [1] deals with anti-albumin antibodies. In words: Adjuvant character in aqueous solution: anti-albumin antibodies by passive hemagglutination (NHCH3 series). It counts as in vivo, Swiss mice.
Description: Groups of 8 Swiss mice aged two months receive, by subcutaneous injection, 0.5 mg of antigen constituted by the albumin of bovine serum (BSA) and 0.1 mg of the substance tested in an isotonic saline solution. […] Thirty days later, the mice receive a further dose containing 0.1 mg of the same antigen.
The strength of antibody is determined by passive hemagglutination, by using the red blood corpuscles of sheep treated for formalin and recovered from the antigen studied by the method described by A. A. Hirata and M. W. Brandiss (J. Immunol., 100, 641-648, 1968). The taking of the blood took place 14, 28, 34 and 36 days after the first injection.
The test system of data set [2] is antibody to ovalbumin. Description: Adjuvant character in oily phase: proportion of antibody to ovalbumin (NHCH3 series). It counts as in vivo, Hartley guinea-pigs. As to conditions: 500 μg ovalbumin, 100 μg in FIA emulsion, 21 days.
Description: As for the preceding tests, one follows the increase of the proportion of antibody caused by the injection of antigen and of the compound of the invention, but, in the present case, the injection contains an oily phase constituted by Freund's incomplete adjuvant (in water-in-oil emulsion).
For these tests, Hartley guinea-pigs of 350 g were used. The control animals receive, in each of the hind feet 0.1 ml of emulsion, either of FIA, or of FCA (Freund's complete adjuvant) containing 500 μg of ovalbumin (antigen). The test product is administered at the rate of 100 μg, in an emulsion of FIA.
21 days after the injection, the proportion of antibody is determined by passive hemagglutatination (PHA), as previously, and by precipitation by the method of Folin.
Data set [3] concerns anti-albumin antibody. In words: Adjuvant character in aqueous phase: anti-albumin antibody by passive hemagglutination (esters). Type of data set: in vivo, Swiss mice. The method, then:
In the series of tests of which the results are indicated hereafter, the influence of the active principle according to the invention on the proportion of the anti-albumin antibody has been studied under the following conditions.
Groups of 8 Swiss mice aged two months receive by subcutaneous injection (SC) or orally (PO) 0.5 mg of antigen constituted by the albumin of bovine serum (BSA) with or without the substance tested in an isotonic saline solution. This large dose of antigen, since it is situated at the limit of the paralysing dose with respect to the immunising response, on account of this fact has a weak response or no response to the antigen alone in the case of the controls; it therefore constitutes a severe criterion for showing the activity of an adjuvant substance. Thirty days later, the mice receive, by the same method of administration, a further dose containing 0.1 mg of the same antigen.
The proportion of antibody is determined by passive hemagglutination by using the red blood corpuscles of sheep treated with formalin and recovered from the antigen studied according to the method described by A. A. Hirata and M. W. Brandiss (J. Immunol., 100, 641-648, 1968). The taking of the blood occurred 14, 28, 34 and 36 days after the first injection.
By way of comparison, mice receive, instead of the product according to the invention, either lipopolysaccharides (LPS) (extract of S.Enteritidis by the water-phenol method), or the adjuvant denoted by the name "WSA" and described by Adam et al. [Infect. Immun. (1973) 7, 855-861]. The control mice only receive the antigen.
The proportions of antibody express the maximum serum dilution which agglutinates a given quantity of red blood corpuscles of sheep.

The test system of data set [4] is antibody specific to the ovalbumin. Description: Adjuvant character in oily phase: serum antibody specific to ovalbumin (esters). It counts as in vivo, Hartley guinea-pigs. To be noted: 100μg in FIA emulsion; for Serum antibody Precipitation: intradermal, 21 days; for Serum antibody Agglutination: passive hemagglutination.
The test system of data set [5] is retarded hypersensitivity to ovalbumin. Description: Retarded hypersensitivity cutaneous test to ovalbumin (esters). To be noted: 100μg in FIA emulsion, challenge day 18, read 48 hours after. It counts as in vivo, Hartley guinea-pigs. The method, then:
The tests are effected on batches of 6 Hartley guinea-pigs, females, of 350 g. The administration is made by intradermal injection in the planter pad of each of the hind feet. […] The compound according to the invention is administered at the rate of 0.1 mg contained in the emulsion containing the FIA.
Eighteen days after this immunisation, one looks for possible reactions of retarded hypersensitivity in the antigen on injecting indradermally 0.01 mg or 5 μg of ovalbumin on the side of the animals, and 48 hours after, the reaction at the point of injection is observed. The diameter in mm of the reaction thus caused is measured.

In data set [6] the test system is Klebsiella pneumoniae. Description: Anti-infectious protection, intramuscular inoculation of 10^4 K.pneumoniae. Type of data set: in vivo, hybrid mice (C57B1/6×AKR)Fl. To be noted: for Number of animals surviving on day 3 / Number of animals surviving on day 5 / Number of animals surviving on day 8: mouse, in vivo.
Data set [7] deals with K. pneumoniae. The arrangement: species or system mice. As to conditions: mouse, in vivo, iv.
Data set [8] concerns mice. In words: LD50 by intravenous injection on mice, Mur-NAc-L-Ser-D-iso-Gln. Type of data set: in vivo. As to conditions: mice aged two months.
Description: By progressively increasing the doses administered, that for which the mortality of the mice of a single batch is established at 50% (LD50) is determined.
Data set [9] relates to anti-albumin antibodies. In words: Adjuvant character in aqueous phase, 0.5 mg BSA (Ser series). It counts as in vivo, Swiss mice. The method, then:
In the series of tests of which the results are indicated hereafter, the influence of the active principle according to the invention on the strength of the anti-albumin antibodies has been studied under the following conditions.
(§1) Groups of 8 Swiss mice aged two months receive, by subcutaneous injection, 0.5 mg of antigen constituted by the albumin of bovine serum (BSA) and 0.1 mg of the tested substance in an isotonic saline solution. This high dose of antigen, since it is situated at the limit of the paralysing dose with respect to the immunising response, therefore carries with it a weak response or no response to the antigen alone in the tests; it then constitutes a severe criterion for showing the activity of an adjuvant substance. Thirty days later, the mice receive a further dose containing 0.1 mg of the same antigen.
(§2) The strength of the antibody is determined by passive hemagglutination by using the red blood corpuscles of sheep treated with formalin and recovered from the antigen studied by the method described by A. A. Hirata and M. W. Brandiss (J. Immunol., 100, 641-648, 1968). The taking of the blood occurred 14, 28, 34 and 36 days after the first injection.
(§3) By way of comparison, the mice receive, instead of the Mur-NAc-L-Ser-D-iso-Gln, either lipopolysaccharides (LPS) (extract of S. Enteritidis by the water-phenol method), or the adjuvant denoted by the name "WSA" and described by Adam et al. [Infect. Immun. (1973) 7, 855-861]. The control mice only received the antigen.

For data set [10], the system named is anti-albumin antibodies. In words: Adjuvant character in aqueous phase, first antigen dose 0.05 mg BSA, PA and ABC (Ser series). Type of data set: in vivo, Swiss mice. To be noted: 100 μg, first BSA dose 0.05 mg. How it is done:
as §1, §2, §3
These tests were carried out again with limitation of the dose of antigen in the first injection to 0.05 mg, the other conditions being the same. This weaker dose of antigen gives by itself a positive response with the controls which have received the antigen without adjuvant. It thus allows to be shown a substance which inhibits the response of immunising the disorder. Moreover, an adjuvant substance, under these conditions, always increases the strength of antibody with respect to that of the controls.
In these tests, the determination of the strength of antibody has been effected simultaneously by passive hemagglutination (PA) and by the method of fixation of the antigen by the serum (ABC), such as described by P. Minden and S. Parr (Handbook of Exp. Immunol., P. 463, D. M. Weir ed. Blackwell Scient. Pub. Oxford and Edinburgh, 1967).

The mark [11] stands for this setting: 100μg S.C. with BSA 0.5 mg in isotonic saline.
The mark [12] stands for this setting: 100μg S.C. with BSA 0.5 mg, further 0.1 mg BSA at 30 days.
The mark [13] stands for this setting: 100μg S.C. with BSA 0.5 mg in isotonic saline, maximum serum dilution agglutinating.
[14] abbreviates: I.V. 100 μg, 1 hour after the infection.
Setting [15] is: I.V. 100 μg, 24 hours before the infection.
[16] abbreviates: iv, listed as Mur-NAc-L-Ala-D-Glu-(OCH3)2.
Setting [17] is: per os 2000 μg, 24 hours before the infection.

Take `CNC(=O)C(CCC(=O)O)NC(=O)C(C)NC(=O)C(C)OC1C(O)C(CO)OC(O)C1NC(C)=O` [Mur-NAc-L-Ala-D-Glu(NHCH3), 2-(2-acetamido-2-deoxy-3-O-D-glucopyranosyl)-D-propionyl-L-alanyl-D-(α-methylamide)-glutamic acid]: the “strength of antibody 14th day” value in data set [1] (setting [11]) was 6. Besides, in data set [1] (setting [12]), the “strength of antibody 34th day” value is given as 1600 and the “strength of antibody day (fourth column, 36 days)” value is 1600. Also, the “Proportion of antibody Agglutination” value in data set [2] (PHA) turned out to be 6100. Besides, the “Proportion of antibody Precipitation” value in [2] (method of Folin) is on record as 5500.

In the case of `COC(=O)CC[C@@H](NC(=O)[C@H](C)NC(=O)[C@@H](C)OC1C(O)C(CO)OC(O)C1NC(C)=O)C(=O)OC` (stereo partly drawn) [Mur-NAc-L-Ala-D-Glu(OCH3)2, 2-(2-acetamido-2-deoxy-3-O-D-glucopyranose)-D-propionyl-L-alanyl-D-glutamic dimethyl ester], the “Proportion of antibody 28th day” value in data set [3] (100μg S.C. with BSA 0.5 mg) worked out at 50. The “Proportion of antibody 14th day” value in [3] (setting [13]) stood at 50. The “Proportion of antibody 34th day” value in data set [3] (setting [12]) turned out to be 400. For the same molecule, the “Proportion of antibody 36th day” value in data set [3] (setting [12]) is on record as 800. Besides, the “Serum antibody Precipitation” value in data set [4] (ovalbumin 0.5 mg) amounted to 950 µg/mL. Further, the “Serum antibody Agglutination” value in [4] (ovalbumin 0.5 mg) is 2600. Further, the “Cutaneous test (diameter in mm)” value in data set [5] (ovalbumin 0.5 mg) was 6.2 mm. The “% of protection” value in [6] (setting [14]) is given as 88%; in data set [6] (setting [15]), 46%; in data set [6] (setting [17]), 50%; in data set [7], 52.5%. Moreover, the “Number of animals surviving on day 3” value stood at 10 in data set [6], 8 in data set [6] (iv), 21 in [6] (setting [16]) and 15 in data set [7]. Besides, the “Number of animals surviving on day 5” value in data set [6] is on record as 9; in [6] (iv), 8; in data set [6] (setting [16]), 19; in [7], 12. Further, the “Number of animals surviving on day 8” value in data set [6] is 8; in data set [6] (iv), 8; in data set [6] (setting [16]) it was 15; in data set [7], 10.

On to `COC(=O)[C@@H](CCC(=O)O)NC(=O)[C@H](C)NC(=O)[C@@H](C)OC1C(O)C(CO)OC(O)C1NC(C)=O` (stereo partly drawn) [Mur-NAc-L-Ala-D-Glu-α-OCH3, 2-(2-acetamido-2-deoxy-3-O-D-glucopyranose)-D-propionyl-L-alanyl-D-glutamic α-methyl ester], for which the “Proportion of antibody 14th day” value in data set [3] (10μg S.C. with BSA 0.5 mg) is given as 6; in [3] (setting [13]), 12; in [3] (2000μg P.O. with BSA 0.5 mg), 6. Besides, the “Proportion of antibody 28th day” value in [3] (10μg S.C. with BSA 0.5 mg) is listed as 6; in [3] (100μg S.C. with BSA 0.5 mg), 12; in [3] (2000μg P.O. with BSA 0.5 mg), 6. For the same molecule, the results for the “Proportion of antibody 34th day” value in [3] (10μg S.C. with BSA 0.5 mg), in data set [3] (setting [12]) and in data set [3] (2000μg P.O. with BSA 0.5 mg) were 200, 200 and 50, respectively. Besides, the “Proportion of antibody 36th day” value in [3] (10μg S.C. with BSA 0.5 mg) was found to be 400; in [3] (setting [12]), 400; in [3] (2000μg P.O. with BSA 0.5 mg), 200. In addition, the “Serum antibody Precipitation” value in [4] (ovalbumin 1 mg, nitrogen precipitable per ml serum) worked out at 2600 µg/mL. Besides, the “Cutaneous test (diameter in mm)” value in data set [5] (ovalbumin 1 mg) was 6 ± 3 mm. In addition, the “% of protection” value in data set [6] (setting [14]) amounted to 88%; in data set [6] (setting [15]), 67%; in data set [6] (setting [17]), 40.5%; in [7], 65%. For the same molecule, the “Number of animals surviving on day 3” value in data set [6] was 11; in data set [6] (iv), 24 and 16; in [7], 16. Also, the “Number of animals surviving on day 5” value in data set [6] is 9; in [6] (iv) it was 24 and 16; in [7] it was 16. In addition, the “Number of animals surviving on day 8” value in [6] is 6; in [6] (iv) it was 23 and 14; in data set [7] it was 12.

`COC(=O)CC[C@@H](NC(=O)[C@H](C)NC(=O)[C@@H](C)OC1C(O)C(CO)OC(O)C1NC(C)=O)C(N)=O` (stereo partly drawn) [Mur-NAc-L-Ala-D-iso-Gln(OCH3), 2-(2-acetamido-2-deoxy-3-O-D-glucopyranose)-D-propionyl-L-alanyl-D-isoglutamine methyl ester]: in data set [3] (100μg S.C. with BSA 0.5 mg), the “Proportion of antibody 28th day” value is given as 12. In [3] (setting [13]), the “Proportion of antibody 14th day” value stood at 12. In data set [3] (setting [12]), the “Proportion of antibody 34th day” value is 100 and the “Proportion of antibody 36th day” value is recorded as 800. Besides, in data set [4] (ovalbumin 0.5 mg), the “Serum antibody Precipitation” value came to 2100 µg/mL and the “Serum antibody Agglutination” value came to 3000. For the same molecule, in data set [5] (ovalbumin 0.5 mg), the “Cutaneous test (diameter in mm)” value is on record as 12 mm. Moreover, the “% of protection” value in [6] (setting [15]) worked out at 29%. In [6] (iv), the “Number of animals surviving on day 3” value was found to be 21, the “Number of animals surviving on day 5” value came to 3 and the “Number of animals surviving on day 8” value amounted to 11.

Consider `CC(=O)NC1C(O)OC(CO)C(O)C1OC(C)C(=O)NC(CO)C(=O)NC(CCC(=O)O)C(N)=O` [Mur-NAc-L-Ser-D-iso-Gln, 2-(2-acetamido-2-deoxy-3-O-D-glucopyranosyl)-D-propionyl-L-seryl-D-isoglutamine], for which, in data set [8], the LD50 was > 1 g per kg. Moreover, the “Strength of antibody 28th day” value in data set [9] (100μg S.C. with BSA 0.5 mg) was determined as 25. Besides, the “strength of antibody 14th day” value in [9] (setting [11]) stood at 12. Besides, in data set [9] (setting [12]), the “Strength of antibody 36th day” value is listed as 1600 and the “strength of antibody 34th day” value came out at 1600. Further, in data set [10], the “Strength of antibody 28th day ABC” value was < 20, the “Strength of antibody 28th day PA” value is listed as 3, the “Strength of antibody 34th day ABC” value was < 20 and the “Strength of antibody 34th day PA” value was 50. Also, in data set [10], the “Strength of antibody 42nd day PA” value stood at 260, the “Strength of antibody 36 day ABC” value was 230 and the “Strength of antibody 36 day PA” value turned out to be 800. Also, the “Strength of antibody 14th day ABC” value in data set [10] (fixation of the antigen by the serum) is < 20. Further, the “Strength of antibody 14th day PA” value in data set [10] (passive hemagglutination) is on record as < 3.
